Measured values reported in patent US4012385A, “Antibacterial quinoxaline 1,4-dioxides” (Pfizer Inc., priority 1975, dated 1977).
≈ marks a conversion by molar mass, not a printed value.

Columns and labels:
[1] = test system: Salmonella Choleraesuis; assay: in vitro antibacterial activity (MIC), two-fold serial dilution in Brain-Heart Infusion broth; settings: Salmonella enterica, read-out: MIC Sal. Choleraesuis
Method: (§1) The broth is inoculated with bacteria, and with the quinoxaline 1,4-dioxide or 1,3 -dihydrofuro[3,4-b]quinoxaline 4,9-dioxide, and then it is incubated overnight at 37 ° C., under anaerobic conditions. On the next day, the test is read visually. The minimum inhibitory concentration (MIC) of test compound is the lowest concentration which prevents turbidity, i.e. which prevents growth of the microorganism.

[2] = test system: Streptococcus pyogenes; assay: as above; settings: read-out: MIC Strep pyogenes
Method: as §1

[3] = test system: Salmonella Choleraesuis; settings: mice, 25 mg./kg., multiple dosing, percentage of animals which survive
Method: The test compound is administered using a multiple dosing regimen at a dosage of 25 mg./kg., and using either the oral (PO) or the subcutaneous (SC) route. The inoculum of bacteria varies from one to about ten times the amount needed to kill 100% of the mice, under conditions of the test. At the end of the test, the activity of a compound is assessed by counting the number of survivors among the treated animals and expressing the activity of a compound as the percentage of animals which survive.

[4] = test system: Escherichia coli; assay: in vitro antibacterial activity (MIC), two-fold serial dilution in Brain-Heart Infusion broth; settings: read-out: MIC Esch coli
Method: as §1

SMILES | MIC [1] [µg/mL] | MIC [2] [µg/mL] | Percentage protection vs. Sal. Choleraesuis, PO [3] [%] | Percentage protection vs. Sal. Choleraesuis, SC [3] [%] | MIC [4] [µg/mL]
COC1(c2ccccc2)OCc2c1[n+]([O-])c1ccccc1[n+]2[O-] (stereo not shown) [1-Methoxy-1-phenyl-1,3-dihydrofuro[3,4-b]quinoxaline 4,9-Dioxide] | 100 (≈ 322 µM) | 25 (≈ 80.6 µM) | 30 | 30 | 25 (≈ 80.6 µM)
CC(=O)SCc1c(C(=O)c2ccccc2)[n+]([O-])c2ccccc2[n+]1[O-] [2-Benzoyl-3-acetylthiomethylquinoxaline 1,4-Dioxide] | > 200 | > 200 | 30 | 20 | > 200
CS(=O)(=O)Cc1c(C(=O)c2ccccc2)[n+]([O-])c2ccccc2[n+]1[O-] [2-Benzoyl-3-methylsulfonylmethylquinoxaline 1,4-Dioxide] | 25 (≈ 69.8 µM) | 12.5 (≈ 34.9 µM) | 60 | 30 | 25 (≈ 69.8 µM)
CC(=O)OCc1c(C(=O)c2ccccc2)[n+]([O-])c2ccccc2[n+]1[O-] [2-Benzoyl-3-acetoxymethylquinoxaline 1,4-Dioxide] | 50 (≈ 148 µM) | 12.5 (≈ 36.9 µM) | 50 | 10 | 12.5 (≈ 36.9 µM)
O=C(c1ccccc1)c1c(CO)[n+]([O-])c2ccccc2[n+]1[O-] [2-Benzoyl-3-hydroxymethylquinoxaline 1,4-Dioxide] | 6.25 (≈ 21.1 µM) | 0.78 (≈ 2.63 µM) | 80 | 60 | 1.56 (≈ 5.27 µM)
